The values that follow come from publication PMC12631873 (Advanced Science, 2025).

Data set [1] concerns cartilage. Description: In vivo and ex vivo fluorescence imaging of cartilage uptake and retention in nude mice. More on the design: species or system mouse. The text has this:
All procedures for mouse maintenance and experiments strictly followed the policy of the Experimental Animal Ethics Committee of the Fifth Affiliated Hospital of Sun Yat‐sen University (protocol numbers: 00361, 00436). Balb/c nu mice (male, 10‐18 weeks old) were used for the general in vivo imaging experiments (Figure 3c–f; Figures S10–S14, Supporting Information). For Figure 3g,h and Figure S16 (Supporting Information), neonatal Balb/c mice (7 days old) were used. Female Balb/c mice (74 weeks old versus 12 weeks old) were used in the aged joint imaging experiment reported in Figure 4a–c and Figure S17 (Supporting Information). The RA model was made using female Balb/c mice (6‐8 weeks old) by intraperitoneal injection of an anti‐collagen antibody cocktail (1.5 mg per mouse; Chondrex, 53100) followed by selective subcutaneous injection of lipopolysaccharide (LPS, 12.5 µg per mouse, Chondrex, 53100) into the left hind paw three days later.^[ [30] ^] C57BL/6J mice (male, 6–8 weeks old) were used for the biocompatibility tests (Figures S23–S25, Supporting Information).
Typically, the fluorescence peptides or peptoids were prepared at a dose of 1 nmol (10 µM in 100 µL of 1× PBS buffer) and injected into the tail vein of each mouse 2 h prior to fluorescence imaging with an IVIS Spectrum imager (PerkinElmer Lumina III). For Figure 4, Figures S17 and S18 (Supporting Information) (joint aging and RA) and Figure S27 (Supporting Information), 2 nmol of Cy5‐(NlysO)7 (20 µM in 100 µL of 1× PBS buffer) were i.v. administered to each mouse. For 1‐week‐old neonatal mice, 1 nmol of Cy5‐(NlysO)7 (20 µM in 50 µL of 1× PBS buffer) was intravenously injected into each mouse. All in vivo imaging was performed 2 h post probe injection with the IVIS Spectrum imager (PerkinElmer, fluorescence: ex/em: 620/670 nm, exposure: 1 s, bing: 4, F/Stop: 2; field of view: A/B/C/Z). Mice were anesthesia with 3% isoflurane (RWD, R510‐22‐10) during image acquisition. Hair in the knee areas was removed before fluorescence imaging for mice in Figure 4a and Figure S17 (Supporting Information). The mice were euthanized following the final image acquisition and occasionally imaged again after skin and organ removal. Next, the airways, ankles, ears, paws, knees, tails, spines, and chest ribs were collected, imaged, and saved for subsequent histology analysis. All acquired fluorescence images were analyzed using the Living Image software (PerkinElmer). The fluorescence signal from each specimen was measured by quantifying the average radiation efficiency within the selected oval‐shaped regions‐of‐interest.
For the cartilage retention experiments (Figures S11 and S12, Supporting Information), Cy5‐(NlysO)7 (10 µM in 100 µL of 1× PBS buffer) was administered via tail vein to four male Balb/c nu mice (10 weeks old) at 2, 24, 48, and 96 h respectively, prior to fluorescence imaging using an IVIS Spectrum imaging system (ex/em: 620/670 nm, exposure: 1 s, bing: 4, F/Stop: 2). Following euthanasia, their cartilaginous tissues were harvested and imaged. The fluorescence images were analyzed and quantified as described above.

In data set [2] the test system is human umbilical vein endothelial cells (HUVECs). Description: CCK-8 cell viability assay on HUVECs. Format: cell-based. The note with it: 0-40 µM, 24 h, n = 6 wells. As for the experimental part: The cultures were maintained under standard conditions of 37 °C and 5% CO2. Chondrocytes collected from the articular cartilage of Sprague‐Dawley (SD) rats (purchased from Jennio Biotech, JNO‐720) were cultured in DMEM medium (Precell, PM150210). Human venous endothelial cells (HUVECs, purchased from iCell, iCell‐h110) were cultured in HUVEC medium (iCell, iCell‐h110‐001b). Both cells were seeded in 96‐well plates at a density of 5000 cells per well. The medium was supplemented with 10% fetal bovine serum (FBS, Precell, 164210) and penicillin‐streptomycin (1:100 diluted from a 100× stock solution, ThermoFisher, 15140122) to support cell growth and prevent bacterial contamination. When cell confluency reached 80%, peptidomimetic probes at increasing concentrations ranging from 0 to 40 µM were added to the cell culture medium (n = 4 wells for chondrocytes, n = 6 wells for HUVECs; blank control group: 0 µM; cells cultured without probe). Following 24 h (or 72 h) of incubation, the medium was removed, and the cells were rinsed three times with 1× PBS buffer. Cell viability was assessed using the CCK‐8 assay kit (GLPBIO, GK10001−5) according to the manufacturer's instructions. After further incubation for 4 h, the optical density (OD) of the CCK‐8 solution was measured at 450 nm using a microplate reader (PerkinElmer, EnVision). For live‐dead cell staining, rat chondrocytes (5000 cells per well seeded, n = 4 wells per group) were cultured for 24 h in medium (without fetal bovine serum) containing 40 µM of each peptidomimetic probe in a 96‐well plate. […] The fluorescence images were obtained using an EVOS M7000 imaging system (Light cubes: GFP and RFP, Objective: 10×). A microscopic image was taken from the live (Calcein AM) staining of each well, and the total fluorescence signals were quantified for each image. The mean fluorescence level of each probe's group was normalized to the blank control group to estimate the relative cell viability. […] The fluorescence intensity of each well was measured by the microplate reader (Ex / Em: 620 /662 nm). […]
(In general: Tetrazolium dyes change colour on reduction, which living cells bring about.)

Square brackets hold non-standard residues; d marks the D form. Peptide text beside a SMILES is read from it. * marks the point of attachment. X1 = CN1/C(=C/C=C/C=C/C2=[N+](CCCCCC(=O)*)c3ccc(S(=O)(=O)[O-])cc3C2(C)C)C(C)(C)c2cc(S(=O)(=O)O)ccc21; Hyp = O=C(O)[C@@H]1C[C@@H](O)CN1; Nlys = NCCCCNCC(=O)O; Ahx = NCCCCCC(=O)O

With `CN1/C(=C/C=C/C=C/C2=[N+](CCCCCC(=O)NCCCCCC(=O)N(CCCCN)CC(=O)N3C[C@H](O)C[C@H]3C(=O)N(CCCCN)CC(=O)N3C[C@H](O)C[C@H]3C(=O)N(CCCCN)CC(=O)N3C[C@H](O)C[C@H]3C(=O)N(CCCCN)CC(=O)N3C[C@H](O)C[C@H]3C(=O)N(CCCCN)CC(=O)N3C[C@H](O)C[C@H]3C(=O)N(CCCCN)CC(=O)N3C[C@H](O)C[C@H]3C(=O)N(CCCCN)CC(=O)N3C[C@H](O)C[C@H]3C(N)=O)c3ccc(S(=O)(=O)[O-])cc3C2(C)C)C(C)(C)c2cc(S(=O)(=O)O)ccc21` [Cy5‐(NlysO)7] ({X1-Ahx}-[Nlys][Hyp][Nlys][Hyp][Nlys][Hyp][Nlys][Hyp][Nlys][Hyp][Nlys][Hyp][Nlys][Hyp]-NH2), the “in vivo retention in joints and ribs compared to peptide sequences Cy5-(GKO)7 and Cy5-R8” value in data set [1] (1 nmol i.v., 0-96 h) was “stronger retention in the joints and ribs in vivo”. Besides, the “fluorescence in cartilage-rich tissues (knee joints, ribs) 2-96 h post-injection” value in data set [1] (1 nmol i.v., imaged at 2, 24, 48, 96 h) is given as “at 48 h but not 96 h”. Also, the “cytotoxicity to HUVECs (CCK-8), in words” value in data set [2] is recorded as “did not exhibit cytotoxicity”; in data set [2] (listed as Cy5-(NlysO)7), “no apparent cytotoxicity at the tested concentrations”.

Consider `CN1/C(=C/C=C/C=C/C2=[N+](CCCCCC(=O)NCCCCCC(=O)N[C@@H](CCCNC(=N)N)C(=O)N[C@@H](CCCNC(=N)N)C(=O)N[C@@H](CCCNC(=N)N)C(=O)N[C@@H](CCCNC(=N)N)C(=O)N[C@@H](CCCNC(=N)N)C(=O)N[C@@H](CCCNC(=N)N)C(=O)N[C@@H](CCCNC(=N)N)C(=O)N[C@@H](CCCNC(=N)N)C(N)=O)c3ccc(S(=O)(=O)[O-])cc3C2(C)C)C(C)(C)c2cc(S(=O)(=O)O)ccc21` [Cy5‐R8, reference compound], for which the “time post-injection that in vivo signals in knee joints and thoracic costal cartilage remained detectable” value in data set [1] (1 nmol tail-vein injection, monitored over 96 h) is on record as “difficult to find after 2 h post‐injection”. The “cytotoxicity to HUVECs (CCK-8), in words” value in data set [2] is listed as “significant cytotoxicity”.
